Test results taken from ChEMBL document CHEMBL2146417, “Fluorescent reporters of monoamine transporter distribution and function” (Bioorg Med Chem Lett, 2011).
The source made the active and inactive calls. No cut-off for these calls is given here.

Tests used:
[1] = species on record: Gallus gallus; assay: Binding affinity to monoamine transporter in dissociated chick brain stem cells assessed as receptor-mediated compound uptake; format: cell-based
[2] = Solubility of the compound in methanol; format: physicochemical
[3] = Solubility of the compound in DMSO; format: physicochemical
[4] = Octanol-phosphate buffered saline partition coefficient, log K of the compound; format: physicochemical; details: for logD: octanol/phosphate buffered saline, read-out: log K
[5] = tested on: HEK293; assay: Binding affinity to human monoamine transporter expressed in HEK293 cells assessed as receptor-mediated compound uptake; format: cell-based
[6] = tested on: MLO-Y4; assay: Binding affinity to monoamine transporter in mouse MLO-Y4 cells assessed as receptor-mediated compound uptake at 20 uM by confocal microscopic analysis in presence of serotonin reuptake inhibitor clomipramine; format: cell-based
[7] = tested on: Rattus norvegicus; assay: Toxicity in Sprague-Dawley rat assessed as change in mean breathing rate at 0.25 mM administered for 30 seconds through polyethylene cannula in carotid artery; format: organism-based; details: in vivo, other, 250 µM
[8] = tested on: Rattus norvegicus; assay: Toxicity in Sprague-Dawley rat assessed as change in blood pressure at 0.25 mM administered for 30 seconds through polyethylene cannula in carotid artery; format: organism-based; details: in vivo, other, 250 µM
[9] = tested on: Rattus norvegicus; assay: Toxicity in Sprague-Dawley rat assessed as change in heart rate at 0.25 mM administered for 30 seconds through polyethylene cannula in carotid artery; format: organism-based; details: in vivo, other, 250 µM
[10] = tested on: Rattus norvegicus; assay: Toxicity in Sprague-Dawley rat assessed as change in mean breathing rate at 0.23 to 1 mM administered for 1 to 3 mins through polyethylene cannula in carotid artery measured after 600 seconds; format: organism-based; details: in vivo, other, 10 min, 1000 µM
[11] = tested on: Rattus norvegicus; assay: Toxicity in Sprague-Dawley rat assessed as change in mean breathing rate at 0.23 to 1 mM administered for 1 to 3 mins through polyethylene cannula in carotid artery measured after 200 to 400 seconds; format: organism-based; details: in vivo, other, 1000 µM
[12] = Drug uptake in Sprague-Dawley rat blood platelet cells administered through intra-arterial injection by fluorescence microscopy analysis; format: ADME, cell-based; details: in vivo, other
[13] = tested on: Brain; assay: Drug uptake in Sprague-Dawley rat brain administered through intra-arterial injection by fluorescence microscopy analysis; format: ADME, tissue-based; details: in vivo, other
[14] = tested on: Rattus norvegicus; assay: Toxicity in Sprague-Dawley rat assessed as prolonged reduction in NRM neurons activity at 0.23 to 1 mM administered for 1 to 3 mins through polyethylene cannula in carotid artery measured 30 mins post dose; format: organism-based; details: in vivo, other, 0.5 h, 1000 µM
[15] = tested on: Rattus norvegicus; assay: Toxicity in Sprague-Dawley rat assessed as prolonged reduction in NRM neurons activity at 0.23 to 1 mM administered for 1 to 3 mins through polyethylene cannula in carotid artery measured immediately post dose; format: organism-based; details: in vivo, other, 1000 µM

SMILES	Activity [1]	solubility [2]	solubility [3]	logD [4]	Activity [5]	other results
NCCN1C(=O)c2cccc3c(N)ccc(c23)C1=O	Active	soluble	soluble	-0.58	Active	Activity [6]: inactive; Activity [7]: Non-toxic; Activity [8]: Non-toxic; Activity [9]: Non-toxic; Activity [10]: Non-toxic; Activity [11]: Non-toxic; Drug uptake [12]: Active; Drug uptake [13]: Not Active; Activity [14]: Non-toxic; Activity [15]: Toxic
NCCc1ccc2ccc3cccc4ccc1c2c34	inactive	soluble	soluble	1.42	inactive	
NCCn1cc2c(nc1=O)Nc1ccccc1S2	Active	soluble	soluble	0.65	Active	
NCCc1c[nH]c2ccc(O)cc12 [SEROTONIN]				-1.57		
CN[C@H]1CC[C@@H](c2ccc(Cl)c(Cl)c2)c2ccccc21 [SERTRALINE]						log K ([4]; octanol/water): 1.37
COc1cccc2c(OCCN)cccc12	inactive	soluble	soluble	0.28	inactive	
NCCOc1cccc2c(O)cccc12	inactive	soluble	soluble	0.1	inactive	
NCCc1c2ccccc2cc2ccccc12	inactive	soluble	soluble	1.1	inactive	
NCCc1ccc(O)c(O)c1 [DOPAMINE]				-2.38		
